This is an account of results in patent US11660293B2, “Substituted 2-azabicyclo[3.1.1]heptane and 2-azabicyclo[3.2.1]octane derivatives as orexin receptor antagonists” (Chronos Therapeutics Limited, priority 2017, dated 2023).

Assay [1] deals with human Orexin type 2 receptors (Homo sapiens (Human), UniProt O43614). Description: Scintillation Proximity Assay (SPA) binding assay, [3H]EMPA displacement, HEK-hOX2 membranes.
Assay [2] addresses human Orexin type 1 receptors (Homo sapiens (Human), UniProt O43613). Put plainly: Scintillation Proximity Assay (SPA) binding assay, [3H]SB-674042 displacement, CHO-hOX1 membranes.

Where only a bound is given, the exact number is not on record here.

human Orexin type 2 receptors, sequence (O43614 whole entry): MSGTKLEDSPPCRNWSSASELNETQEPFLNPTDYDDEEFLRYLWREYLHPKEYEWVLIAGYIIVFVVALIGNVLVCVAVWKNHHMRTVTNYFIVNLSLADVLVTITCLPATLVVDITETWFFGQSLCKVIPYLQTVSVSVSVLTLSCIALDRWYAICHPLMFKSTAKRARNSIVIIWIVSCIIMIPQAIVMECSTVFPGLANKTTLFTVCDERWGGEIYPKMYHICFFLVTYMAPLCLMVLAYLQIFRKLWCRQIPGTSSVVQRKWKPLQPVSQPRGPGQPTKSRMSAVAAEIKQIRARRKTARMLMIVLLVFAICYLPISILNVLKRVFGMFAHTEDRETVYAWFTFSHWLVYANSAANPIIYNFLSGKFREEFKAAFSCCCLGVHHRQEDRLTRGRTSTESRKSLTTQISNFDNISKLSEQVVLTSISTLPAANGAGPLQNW
human Orexin type 1 receptors, sequence (O43613 whole entry): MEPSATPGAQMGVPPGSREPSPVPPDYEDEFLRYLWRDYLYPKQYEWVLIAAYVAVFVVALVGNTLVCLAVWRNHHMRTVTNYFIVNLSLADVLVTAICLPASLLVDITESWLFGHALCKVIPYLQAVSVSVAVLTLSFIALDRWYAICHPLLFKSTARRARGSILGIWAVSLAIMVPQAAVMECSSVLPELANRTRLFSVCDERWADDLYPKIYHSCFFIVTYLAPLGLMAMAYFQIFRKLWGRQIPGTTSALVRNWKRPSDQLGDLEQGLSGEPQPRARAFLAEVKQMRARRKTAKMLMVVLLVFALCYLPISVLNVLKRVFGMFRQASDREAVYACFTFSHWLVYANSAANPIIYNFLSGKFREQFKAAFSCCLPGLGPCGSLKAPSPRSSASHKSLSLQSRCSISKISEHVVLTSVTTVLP

For `Cc1nc(C(=O)N2C(CNc3nc4ccc(F)cc4s3)CC3CC2C3)c(-c2ccccc2)s1` (stereo not shown) [Example 61, 6-fluoro-N-{[2-(2-methyl-5-phenyl-1,3-thiazole-4-carbonyl)-2-azabicyclo[3.1.1]heptan-3-yl]methyl}-1,3-benzothiazol-2-amine], the “OX2 pKi (SPA binding)” value in assay [1] (Table 1, [3H]EMPA 2 nM) was 8.03. Further, the “OX1 pKi (SPA binding)” value in assay [2] (Table 1, [3H]SB-674042 2 nM) was determined as 9.12.

Turning to `Cc1nc(C(=O)N2C(COc3ccc(F)cc3)CC3CC2C3)c(-c2ccc(F)cc2)s1` (stereo not shown) [Example 50], the “OX2 pKi (SPA binding)” value in assay [1] (Table 1, [3H]EMPA 2 nM) amounted to 6.52. In assay [2] (Table 1, [3H]SB-674042 2 nM), the “OX1 pKi (SPA binding)” value is on record as 7.66.

`Cc1ccc(-n2nccn2)c(C(=O)N2C3CC(C3)[C@@H](C)C2CNc2nc3ccccc3s2)n1` (stereo partly drawn) [Example 178, cis-N-({4-methyl-2-[6-methyl-3-(2H-1,2,3-triazol-2-yl)pyridine-2-carbonyl]-2-azabicyclo[3.1.1]heptan-3-yl}methyl)-1,3-benzothiazol-2-amine]: the “OX2 pKi (SPA binding)” value in assay [1] (Table 2, [3H]EMPA 2 nM) is reported as 5.63. Also, in assay [2] (Table 2, [3H]SB-674042 2 nM), the “OX1 pKi (SPA binding)” value is reported as 8.52.

For `Cc1ccc(-n2nccn2)c(C(=O)N2C3CC(C3)[C@@H](C)C2COc2ccc(F)cc2)n1` (stereo partly drawn) [Example 95, cis-3-[(4-fluorophenoxy)methyl]-4-methyl-2-[6-methyl-3-(2H-1,2,3-triazol-2-yl)pyridine-2-carbonyl]-2-azabicyclo[3.1.1]heptane], the “OX2 pKi (SPA binding)” value in assay [1] (Table 1, [3H]EMPA 2 nM) is 6.6. Besides, in assay [2] (Table 1, [3H]SB-674042 2 nM), the “OX1 pKi (SPA binding)” value came to 8.09.

Turning to `C[C@@H]1C2CC(C2)N(C(=O)c2cc(Cl)ccc2-n2nccn2)C1CNc1cnc(C(F)(F)F)cn1` (mixture of isomers) [Example 203, cis-N-({2-[5-chloro-2-(2H-1,2,3-triazol-2-yl)benzoyl]-4-methyl-2-azabicyclo[3.1.1]heptan-3-yl}methyl)-5-(trifluoromethyl)pyrazin-2-amine], the “OX2 pKi (SPA binding)” value in assay [1] (Table 2, [3H]EMPA 2 nM) was determined as 5.05. Moreover, the “OX1 pKi (SPA binding)” value in assay [2] (Table 2, [3H]SB-674042 2 nM) was determined as 8.17.

Consider `C[C@@H]1C2CC(C2)N(C(=O)c2cc(Cl)ccc2-n2nccn2)C1CNc1nc2ccc(F)cc2s1` (single isomer, unassigned) [Example 173, N-({(3R,4S) or (3S,4R)2-[5-chloro-2-(2H-1,2,3-triazol-2-yl)benzoyl]-4-methyl-2-azabicyclo[3.1.1]heptan-3-yl}methyl)-6-fluoro-1,3-benzothiazol-2-amine], for which, in assay [1] (Table 2, [3H]EMPA 2 nM), the “OX2 pKi (SPA binding)” value came to 6.53. In assay [2] (Table 2, [3H]SB-674042 2 nM), the “OX1 pKi (SPA binding)” value stood at 9.36.

As to `C[C@@H]1C2CC(C2)N(C(=O)c2cc(Cl)ccc2-n2nccn2)C1CNc1nc2cccnc2o1` (single isomer, unassigned) [Example 244, N-{[(3R,4S) or (3S,4R)-2-[5-chloro-2-(2H-1,2,3-triazol-2-yl)benzoyl]-4-methyl-2-azabicyclo[3.1.1]heptan-3-yl]methyl}-[1,3]oxazolo[5,4-b]pyridin-2-amine], in assay [1] (Table 2, [3H]EMPA 2 nM), the “OX2 pKi (SPA binding)” value stood at 5.18. The “OX1 pKi (SPA binding)” value in assay [2] (Table 2, [3H]SB-674042 2 nM) worked out at 8.25.

As to `Cc1nc(C(=O)N2C3CC(C3)[C@@H](C)C2COc2ccc(F)cc2)c(-n2cccn2)s1` (mixture of isomers) [Example 141, cis-3-[(4-fluorophenoxy)methyl]-4-methyl-2-[2-methyl-5-(1H-pyrazol-1-yl)-1,3-thiazole-4-carbonyl]-2-azabicyclo[3.1.1]heptane], the “OX2 pKi (SPA binding)” value in assay [1] (Table 2, [3H]EMPA 2 nM) was 6.45. Further, the “OX1 pKi (SPA binding)” value in assay [2] (Table 2, [3H]SB-674042 2 nM) was 6.91.

As for `Cc1ccc(OCC2[C@H](C)C3CC(C3)N2C(=O)c2nc(C)ccc2-n2nccn2)nc1` (mixture of isomers) [Example 100, cis-4-methyl-2-[6-methyl-3-(2H-1,2,3-triazol-2-yl)pyridine-2-carbonyl]-3-{[(5-methylpyridin-2-yl)oxy]methyl}-2-azabicyclo[3.1.1]heptane], the “OX2 pKi (SPA binding)” value in assay [1] (Table 1, [3H]EMPA 2 nM) amounted to 5.96. Besides, the “OX1 pKi (SPA binding)” value in assay [2] (Table 1, [3H]SB-674042 2 nM) worked out at 7.03.

Turning to `C[C@@H]1C2CC(C2)N(C(=O)c2cc(Cl)ccc2-n2nccn2)C1CNc1cnc(C2CC2)cn1` (stereo partly shown) [Example 257], in assay [1] (Table 2, [3H]EMPA 2 nM), the “OX2 pKi (SPA binding)” value worked out at 5.41. Moreover, in assay [2] (Table 2, [3H]SB-674042 2 nM), the “OX1 pKi (SPA binding)” value amounted to 7.58.

Turning to `Cc1nc(C(=O)N2C(COc3ccc(Br)cc3)CC3CC2C3)c(-c2ccccc2)s1` (stereo not shown) [Example 46], in assay [1] (Table 1, [3H]EMPA 2 nM), the “OX2 pKi (SPA binding)” value is 6.51. Further, the “OX1 pKi (SPA binding)” value in assay [2] (Table 1, [3H]SB-674042 2 nM) turned out to be 7.62.

`Cc1nc(C(=O)N2C3CC(C3)[C@@H](C)C2COc2ccc(F)cc2)c(-n2nccn2)s1` (stereo partly drawn) [Example 140, cis-3-[(4-flurophenoxy)methyl]-4-methyl-2-[2-methyl-5-(2H-1,2,3-triazol-2-yl)-1,3-thiazole-4-carbonyl]-2-azabicyclo[3.1.1]heptane]: the “OX2 pKi (SPA binding)” value in assay [1] (Table 2, [3H]EMPA 2 nM) worked out at 6.22. Also, the “OX1 pKi (SPA binding)” value in assay [2] (Table 2, [3H]SB-674042 2 nM) worked out at 7.49.

In the case of `C[C@@H]1C2CC(C2)N(C(=O)c2cc(F)ccc2-n2nccn2)C1CNc1cnc2cc(F)ccc2n1` (stereo in doubt) [Example 224, cis-6-fluoro-N-({2-[5-fluoro-2-(2H-1,2,3-triazol-2-yl)benzoyl]-4-methyl-2-azabicyclo[3.1.1]heptan-3-yl}methyl)quinoxalin-2-amine], the “OX2 pKi (SPA binding)” value in assay [1] (Table 2, [3H]EMPA 2 nM) worked out at 6.19. Besides, the “OX1 pKi (SPA binding)” value in assay [2] (Table 2, [3H]SB-674042 2 nM) stood at 8.04.

As for `C[C@@H]1C2CC(C2)N(C(=O)c2cc(Cl)ccc2-n2nccn2)C1CNc1nc2cccnc2s1` (single isomer, unassigned) [Example 236, N-{[(3R,4S) or (3S,4R)-2-[5-chloro-2-(2H-1,2,3-triazol-2-yl)benzoyl]-4-methyl-2-azabicyclo[3.1.1]heptan-3-yl]methyl}-[1,3]thiazolo[5,4-b]pyridin-2-amine], in assay [1] (Table 2, [3H]EMPA 2 nM), the “OX2 pKi (SPA binding)” value is 5.7. The “OX1 pKi (SPA binding)” value in assay [2] (Table 2, [3H]SB-674042 2 nM) was determined as 8.99.

For `Cc1ccc(-n2nccn2)c(C(=O)N2C3CC(C3)[C@@H](C)C2CNc2nc3cccnc3s2)n1` (stereo partly drawn) [Example 184, cis-N-({4-methyl-2-[6-methyl-3-(2H-1,2,3-triaozl-2-yl)pyridine-2-carbonyl]-2-azabicyclo[3.1.1]heptan-3-yl}methyl)-[1,3]thiazolo[5,4-b]pyridin-2-amine], the “OX2 pKi (SPA binding)” value in assay [1] (Table 2, [3H]EMPA 2 nM) came to 5.07. Also, in assay [2] (Table 2, [3H]SB-674042 2 nM), the “OX1 pKi (SPA binding)” value is on record as 8.08.

Consider `C[C@@H]1C2CC(C2)N(C(=O)c2cc(C#N)ccc2-n2nccn2)C1CNc1nc2cccnc2s1` (stereo partly drawn) [Example 231, cis-3-{4-methyl-3-[({[1,3]thiazolo[5,4-b]pyridin-2-yl}amino)methyl]-2-azabicyclo[3.1.1]heptane-2-carbonyl}-4-(2H-1,2,3-triazol-2-yl)benzonitrile], for which the “OX2 pKi (SPA binding)” value in assay [1] (Table 2, [3H]EMPA 2 nM) stood at 5.21. For the same compound, the “OX1 pKi (SPA binding)” value in assay [2] (Table 2, [3H]SB-674042 2 nM) is 8.2.

For `Cc1nc(C(=O)N2C3CC(C3)[C@H](C)C2COc2ccc(F)cn2)c(-c2ccccn2)s1` (mixture of isomers) [Example 117, trans-3-{[(5-fluoropyridin-2-yl)oxy]methyl}-4-methyl-2-[2-methyl-5-(pyridin-2-yl)-1,3-thiazole-4-carbonyl]-2-azabicyclo[3.1.1]heptane], the “OX2 pKi (SPA binding)” value in assay [1] (Table 2, [3H]EMPA 2 nM) worked out at 5.47. Also, the “OX1 pKi (SPA binding)” value in assay [2] (Table 2, [3H]SB-674042 2 nM) was 7.13.

In the case of `Cc1ccc(-n2nccn2)c(C(=O)N2C3CC(C3)[C@@H](C)C2CNc2nc3ccc(F)cc3s2)n1` (single isomer, unassigned) [Example 154, 6-fluoro-N-{[(3R,4S) or (3S,4R)-4-methyl-2-[6-methyl-3-(2H-1,2,3-triazol-2-yl)pyridine-2-carbonyl]-2-azabicyclo[3.1.1]heptan-3-yl]methyl}-1,3-benzothiazol-2-amine], the “OX2 pKi (SPA binding)” value in assay [1] (Table 2, [3H]EMPA 2 nM) was determined as 6.23. The “OX1 pKi (SPA binding)” value in assay [2] (Table 2, [3H]SB-674042 2 nM) is reported as 9.06.

For `Cc1nc(C(=O)N2C3CC(C3)[C@H](C)C2COc2ccc(F)cn2)c(-c2ncccn2)s1` (mixture of isomers) [Example 116, trans-3-{[(5-fluoropyridin-2-yl)oxy]methyl}-4-methyl-2-[2-methyl-5-(pyrimidin-2-yl)-1,3-thiazole-4-carbonyl]-2-azabicyclo[3.1.1]heptane], the “OX2 pKi (SPA binding)” value in assay [1] (Table 2, [3H]EMPA 2 nM) was found to be 5.26. The “OX1 pKi (SPA binding)” value in assay [2] (Table 2, [3H]SB-674042 2 nM) is on record as 7.32.

On to `Cc1ccc(-n2nccn2)c(C(=O)N2C3CC(C3)[C@@H](C)C2CNc2ncc(C(F)(F)F)cn2)n1` (single isomer, unassigned) [Example 194, N-{[(3S,4R) or (3R,4S)-4-methyl-2-[6-methyl-3-(2H-1,2,3-triazol-2-yl)pyridine-2-carbonyl]-2-azabicyclo[3.1.1]heptan-3-yl]methyl}-5-(trifluoromethyl)pyrimidin-2-amine], for which the “OX2 pKi (SPA binding)” value in assay [1] (Table 2, [3H]EMPA 2 nM) is reported as 4.66. Besides, the “OX1 pKi (SPA binding)” value in assay [2] (Table 2, [3H]SB-674042 2 nM) is 7.51.

Regarding `Cc1ccc(-n2nccn2)c(C(=O)N2C3CC(C3)[C@@H](C)C2CNc2cnc(C(F)(F)F)cn2)n1` (single isomer, unassigned) [Example 166, N-{[(3S,4R) or (3R,4S)-4-methyl-2-[6-methyl-3-(2H-1,2,3-triazol-2-yl)pyridine-2-carbonyl]-2-azabicyclo[3.1.1]heptan-3-yl]methyl}-5-(trifluoromethyl)pyrazin-2-amine], the “OX2 pKi (SPA binding)” value in assay [1] (Table 2, [3H]EMPA 2 nM) came to 4.29. Further, the “OX1 pKi (SPA binding)” value in assay [2] (Table 2, [3H]SB-674042 2 nM) is reported as 6.99.

Regarding `Cc1ccc(-c2ncccn2)c(C(=O)N2C3CC(C3)[C@@H](C)C2CNc2cnc(C(F)(F)F)cn2)n1` (single isomer, unassigned) [Example 249, N-{[(3S,4R) or (3R,4S)-4-methyl-2-[6-methyl-3-(pyrimidin-2-yl)pyridine-2-carbonyl]-2-azabicyclo[3.1.1]heptan-3-yl]methyl}-5-(trifluoromethyl)pyrazin-2-amine], the Ki in assay [1] (Table 2, [3H]EMPA 2 nM, read-out: OX2 pKi (SPA binding) (converted)) is over 31.6 µM. Further, the “OX1 pKi (SPA binding)” value in assay [2] (Table 2, [3H]SB-674042 2 nM) was 5.12.

As to `Cc1ccc(-n2nccn2)c(C(=O)N2C3CC(C3)[C@@H](C)C2CNc2cnc3ccccc3n2)n1` (mixture of isomers) [Example 158, cis-N-({4-methyl-2-[6-methyl-3-(2H-1,2,3-triazol-2-yl)pyridine-2-carbonyl]-2-azabicyclo[3.1.1]heptan-3-yl}methyl)quinoxalin-2-amine], in assay [1] (Table 2, [3H]EMPA 2 nM), the “OX2 pKi (SPA binding)” value is 5.74. Also, the “OX1 pKi (SPA binding)” value in assay [2] (Table 2, [3H]SB-674042 2 nM) was 8.4.
